Results taken from patent EP0121972A2, “N-aryl-alpha-amino-carboxamides” (JANSSEN PHARMACEUTICA N.V., priority 1983, dated 1984).

Tested on: multifocal ventricular arrhythmia
Assay: Antiarrhythmic effect in dogs with ventricular arrhythmia after coronary artery ligation
Format: in vivo
Settings: given intravenously; for minimal effective dose: Canis lupus familiaris, iv, lowest effective dose normalizing the cardial rhythm, about 16 hours after ligation of the anterior descendent branch of the left coronary artery, under neuroleptanalgesia, read-out: Antiarrhythmic effects in dogs LED in mg/kg body weight; for Antiarrhythmic effects in dogs duration: duration of action at the lowest effective dose, coronary-ligated dogs
Procedure: The compounds of formula (I) and their pharmaceutically acceptable acid addition salts and possible stereochemically isomeric forms thereof show excellent antiarrhythmic properties and as such they are useful in the normalization of irregular cardial rhythms. The antiarrhythmic effect of the compounds of this invention is clearly illustrated in the following experiment in dogs. The test was carried out under neuroleptanalgesia (1 ml per 10 kg body weight of fentanyl (0.4 mg/ml) and droperidol (20 mg/ml)).
The test compounds were given intravenously after a control period of 30 minutes.

Row | SMILES | minimal effective dose [mg/kg] | Antiarrhythmic effects in dogs duration [min]
1 | CO[C@@H]1CCCC[C@H]1N1CCC(C(=O)Nc2c(C)cccc2C)(N(C)C)CC1 (relative stereo) [compound 18, trans-4-(dimethylamino)-N-(2,6-dimethylphenyl)-l-(2-methoxycyclo-hexyl)-4-piperidinecarboxamide] | 0.08 | 150
2 | Cc1cccc(C)c1NC(=O)C1(N(C)C)CCN([C@@H]2CCCC[C@H]2O)CC1 (relative stereo) [compound 89, trans-4-(dimethylamino)-N-(2,6-dimethylphenyl)-1-(2-hydroxycyclohexyl)-4-piperidinecarboxamide] | 0.04 | 240
3 | Cc1cccc(C)c1NC(=O)C1(N(C)C)CCN([C@@H]2CCC[C@H]2O)CC1 (relative stereo) [compound 91] | 0.08 | 220
4 | CCN(CC)C1(C(=O)Nc2c(C)cccc2C)CCN([C@@H]2CCC[C@H]2O)CC1 (relative stereo) [compound 92] | 0.31 | 205
5 | CCN(CC)C1(C(=O)Nc2c(C)cccc2C)CCN([C@@H]2CCCC[C@H]2O)CC1 (relative stereo) [compound 93] | 0.63 | 30
6 | Cc1cc(N(C)C)cc(C)c1NC(=O)C1(N(C)C)CCN([C@@H]2CCCC[C@H]2O)CC1 (relative stereo) [compound 125] | 0.08 | 165
7 | Cc1cccc(C)c1NC(=O)C1(N2CCOCC2)CCN([C@@H]2CCCC[C@H]2O)CC1 (relative stereo) [compound 127, trans-N-(2,6-dimethylphenyl)-l-(2-hydroxycyclohexyl)-4-(4-morpholinyl)-4-piperidinecarboxamide] | 0.31 | 55
8 | Cc1cccc(C)c1NC(=O)C1(N(C)C)CCN([C@@H]2CCC[C@H]2NCc2ccccc2)CC1 (relative stereo) [compound 129, trans-4-(dimethylamino)-N-(2,6-dimethylphenyl)-l-[2-[(phenylmethyl)amino]cyclopentyl]-4-piperidinecarboxamide] | 0.08 | –
9 | Cc1cccc(C)c1NC(=O)C1(N(C)C)CCN([C@@H]2CCNC[C@H]2O)CC1 (relative stereo) [compound 210, trans-4-(dimethylamino)-N-(2,6-dimethylphenyl)-3'-hydroxy-[1,4'-bipiperidine]-4-carboxamide] | 0.16 | 25
10 | Cc1cccc(C)c1NC(=O)C1(N(C)C)CCN([C@H]2CNCC[C@@H]2O)CC1 (relative stereo) [compound 211, trans-4-(dimethylamino)-N-(2,6-dimethylphenyl)-4'-hydroxy-[l,3'-bipiperidine]-4-carboxamide] | 0.63 | 160
11 | Cc1cccc(C)c1NC(=O)C1(N(C)C)CCN([C@H]2CCC[C@@H]2N)CC1 (relative stereo) [compound 217, trans-l-(2-aminocyclopentyl)-4-(dimethylamino)-N-(2,6-dimethylphenyl)-4-piperidinecarboxamide] | 0.31 | 50
12 | CC(=O)N[C@H]1CCC[C@@H]1N1CCC(C(=O)Nc2c(C)cccc2C)(N(C)C)CC1 (relative stereo) [compound 219, trans-l-[2-(acetylamino)cyclopentyl]-4-(dimethylamino)-N-(2,6-dimethylphenyl)-4-piperidinecarboxamide] | 0.08 | 285
13 | Cc1cccc(C)c1NC(=O)C1(N(C)C)CCN([C@H]2CCCC[C@@H]2NC(N)=O)CC1 (relative stereo) [compound 224, trans-1-[2-[(aminocarbonyl)-amino]cyclohexyl]-4-(dimethyJamino)-N-(2,6-dimethylphenyl)-4-piperidinecarboxamide] | 0.04 | 130
14 | Cc1cccc(C)c1NC(=O)C1(N(C)C)CCN([C@@H]2CCC[C@H]2N(CCO)Cc2ccccc2)CC1 (relative stereo) [compound 225, trans-4-(dimethyl-amino)-N-(2,6-dimethylphenyl)-1-[2-[(2-hydroxyethyl)(phenylmethyl)-amino]cyclopentyl]-4-piperidinecarboxamide] | 0.08 | 140
15 | Cc1cccc(C)c1NC(=O)C1(N(C)C)CCN([C@H]2CCC[C@@H]2NCCO)CC1 (relative stereo) [compound 231, trans-4-(dimethylamino)-N-(2,6-dimethylphenyl)-l-[2-[(2-hydroxyethyl)amino]cyclopentyl]-4-piperidinecarboxamide] | 0.16 | >230
16 | CCN(CC)C1(C(=O)Nc2c(C)cccc2C)CCN(C(C)C)CC1 [compound 53, 4-(diethylamino)-N-(2,6-dimethylphenyl)-1-(1-methylethyl)-4-piperidinecarboxamide] | 0.63 | 140
17 | CCN(CC)C1(C(=O)Nc2c(C)cccc2C)CCN(C2CCCC2)CC1 [compound 54, 1-cyclopentyl-4-(diethylamino)-N-(2,6-dimethylphenyl)-4-piperidinecarboxamide] | 0.16 | 240
18 | Cc1cccc(C)c1NC(=O)C1(N(C)C)CCNCC1 [compound 71, 4-(dimethylamino)-N-(2,6-dimethylphenyl)-4-piperidinecarboxamide] | 1.25 | 240
19 | CCN(C)C1(C(=O)Nc2c(C)cccc2C)CCNCC1 [compound 73, N-(2,6-dimethylphenyl)-4-(ethylmethylamino)-4-piperidine carboxamide] | 0.63 | 30

Row | SMILES | minimal effective dose [mg/kg] | Antiarrhythmic effects in dogs duration [min]
20 | COC1CNCCC1N1CCC(C(=O)Nc2c(C)cccc2C)(N(C)C)CC1 (stereo not drawn) [compound 85, cis-4-(dimethylamino)-N-(2,6-dimethylphenyl)-3'-methoxy-[l,4'-bipiperidine]-4-carboxamide] | 0.63 | 65
21 | Cc1cccc(C)c1NC(=O)C1(N(C)C)CCN(C2CCNCC2)CC1 [compound 86, 4-(dimethylamino)-N-(2,6-dimethylphenyl)-[1,4'-bipiperidine]-4-carboxamide] | 0.16 | 185
22 | Cc1cccc(C)c1NC(=O)C1(N(C)C)CCN(CC(O)CN(Cc2ccccc2)Cc2ccccc2)CC1 (stereo not shown) [compound 96, 1-[3-[bis(phenylmethyl)amino]-2-hydroxypropyl]-4-(dimethylamino)-N-(2,6-dimethylphenyl)-4-piperidinecarboxamide] | 0.31 | 40
23 | Cc1cccc(C)c1NC(=O)C1(N(C)C)CCN(CC(O)CO)CC1 (stereo not shown) [compound 97] | 0.31 | 60
24 | Cc1cccc(C)c1NC(=O)C1(N(C)C)CCN(C2CCCC2)CC1 [compound 130, l-cyclopentyl-4-(dimethylamino)-N-(2,6-dimethylphenyl)-4-piperidinecarboxamide] | 0.16 | 65
25 | Cc1cccc(C)c1NC(=O)C1(N(C)C)CCN(C(C)C)CC1 [compound 132] | 0.16 | 140
26 | CCN1CCC(C(=O)Nc2c(C)cccc2C)(N(C)C)CC1 [compound 134] | 0.63 | 100
27 | Cc1cccc(C)c1NC(=O)C1(N(C)C)CCN(CC2CC2)CC1 [compound 135] | 0.16 | 190
28 | CCCN1CCC(C(=O)Nc2c(C)cccc2C)(N(C)C)CC1 [compound 136] | 0.16 | 15
29 | CCCCN1CCC(C(=O)Nc2c(C)cccc2C)(N(C)C)CC1 [compound 137] | 0.16 | 145
30 | CCN(C)C1(C(=O)Nc2c(C)cccc2C)CCN(C(C)C)CC1 [compound 138] | 1.25 | 100
31 | CCN(CC)C1(C(=O)Nc2c(C)cccc2C)CCN(C(C)COC)CC1 (stereo not shown) [compound 140] | 0.31 | 220
32 | CCN(CC)C1(C(=O)Nc2c(C)cccc2C)CCN(C2CCCCC2)CC1 [compound 141] | 0.16 | 40
33 | CCN(CC)C1(C(=O)Nc2cc(Cl)ccc2C)CCN(C(C)C)CC1 [compound 143] | 0.31 | 95
34 | CCOC(=O)N1CCC(N2CCC(C(=O)Nc3c(C)cccc3C)(N(C)C)CC2)C(OC)C1 (stereo not shown) [compound 144] | 0.16 | 40
35 | CCN(CC)CCCC(C)N1CCC(C(=O)Nc2c(C)cccc2C)(N(C)C)CC1 (stereo not shown) [compound 146] | 1.25 | 45
36 | C=CCN1CCC(C(=O)Nc2c(C)cccc2C)(N(C)C)CC1 [compound 162, 4-(dimethylamino)-N-(2,6-dimethylphenyl)-l-(2-propenyl)-4-piperidinecarboxamide] | 0.31 | 25
37 | CCN(CC)CCN1CCC(C(=O)Nc2c(C)cccc2C)(N(C)C)CC1 [compound 163, 1-[2-(diethylamino)ethyl]-4-(dimethylamino)-N-(2,6-dimethylphenyl)-4-piperidinecarboxamide] | 0.31 | 220
